Laboratory results published in patent US20220249487A1, “QUINAZOLINYL COMPOUNDS AND METHODS OF USE” (Genentech, Inc., priority 2019, published 2022).
Counter-ions that a name gives are not always drawn.

target: T1, IRE1α (Homo sapiens, UniProt O75460, D688N); experiment: IRE1α TR-FRET competition binding assay (HTRF); settings: His-tagged IRE1α kinase dead construct (KR, AA G547-L977, D688N); Alexa fluor 647-labeled ATP competitive probe 2 nM; read-out: IRE1α (alpha) HTRF (IC50)
T1 construct: containing the kinase and RNase domains (KR, AA G547-L977, D688N); made in house; host or cells: Sf9 insect cells
T1 sequence (O75460 547-977 D688N): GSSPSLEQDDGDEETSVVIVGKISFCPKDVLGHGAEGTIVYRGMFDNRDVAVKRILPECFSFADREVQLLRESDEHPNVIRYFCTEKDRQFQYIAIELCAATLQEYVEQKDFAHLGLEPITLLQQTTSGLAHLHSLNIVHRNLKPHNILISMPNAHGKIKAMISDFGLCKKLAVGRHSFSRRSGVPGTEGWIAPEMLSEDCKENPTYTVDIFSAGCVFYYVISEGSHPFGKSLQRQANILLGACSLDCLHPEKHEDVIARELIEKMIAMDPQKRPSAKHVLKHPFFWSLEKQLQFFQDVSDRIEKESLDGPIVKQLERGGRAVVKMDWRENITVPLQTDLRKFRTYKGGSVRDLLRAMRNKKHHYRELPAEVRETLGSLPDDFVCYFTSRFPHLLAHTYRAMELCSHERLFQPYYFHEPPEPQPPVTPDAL
Protocol: To determine the affinity of compound binding to the kinase domain of IRE1α, a time-resolved fluorescence resonance energy transfer (TR-FRET) competition assay was used.
A His-tagged IRE1α kinase dead construct containing the kinase and RNase domains (KR, AA G547-L977, D688N) was expressed in Sf9 insect cells. The purified protein (final concentration 0.25 nM) was pre-incubated with anti-His Europium labeled antibody (Life Technologies PV5596, final concentration 2 nM) for one hour at 4° C. in TR-FRET Assay Buffer (50 mM HEPES, pH 7.5, 10 mM MgCl2, 0.083 mM Brij 35, 1 mM DTT, and 0.1% bovine gamma globulin) prior to addition to test compounds. An Alexa fluor 647-labeled probe based on an ATP competitive inhibitor was added to a final concentration of 2 nM. Reactions were carried out for one hour at room temperature in a final volume of 20 μL in 384 well white ProxiPlates (Perkin Elmer 6008289). Binding of the probe to the IRE1α protein was detected in an Envision instrument (PerkinElmer) equipped with a TRF laser option and a LANCE/Delfia Dual/Bias D400/D630 mirror (Ex 347 nm, 1st Em 665 nm, 2nd Em 615 nm).

Compound | IC50 [nM]
O=S(=O)(Cc1ccccc1)Nc1ccc(-c2ccc3nc(N[C@H]4CCCNC4)ncc3c2)c(F)c1F [Compound 1001, (S)—N-(2,3-Difluoro-4-(2-(piperidin-3-ylamino)quinazolin-6-yl)phenyl)-1-phenylmethanesulfonamide] | 0.57
O=S(=O)(CCC(F)(F)F)Nc1ccc(-c2ccc3nc(N[C@H]4CCCNC4)ncc3c2)c(F)c1F [Compound 1002, (S)—N-(2,3-Difluoro-4-(2-(piperidin-3-ylamino)quinazolin-6-yl)phenyl)-3,3,3-trifluoropropane-1-sulfonamide] | 7.6
O=S(=O)(Cc1ccccc1)Nc1c(F)cc(-c2ccc3nc(N[C@H]4CCCNC4)ncc3c2)c(F)c1F [Compound 1003, (S)-1-Phenyl-N-(2,3,6-trifluoro-4-(2-(piperidin-3-ylamino)quinazolin-6-yl)phenyl)methanesulfonamide] | 0.65
O=S(=O)(Cc1ccccc1)Nc1ccc(F)c(-c2ccc3nc(N[C@H]4CCCNC4)ncc3c2)c1F [Compound 1004, (S)—N-(2,4-Difluoro-3-(2-(piperidin-3-ylamino)quinazolin-6-yl)phenyl)-1-phenylmethanesulfonamide] | 150
O=S(=O)(Cc1ccccc1)Nc1ccc(F)c(-c2ccc3nc(N[C@H]4CCCNC4)ncc3c2)c1 [Compound 1005, (S)—N-(4-Fluoro-3-(2-(piperidin-3-ylamino)quinazolin-6-yl)phenyl)-1-phenylmethanesulfonamide] | 79
O=S(=O)(Cc1ccccc1)Nc1cccc(-c2ccc3nc(N[C@H]4CCCNC4)ncc3c2)c1F [Compound 1006, (S)—N-(2-Fluoro-3-(2-(piperidin-3-ylamino)quinazolin-6-yl)phenyl)-1-phenylmethanesulfonamide] | 100
CCC(F)(F)CS(=O)(=O)Nc1ccc(-c2ccc3nc(N[C@H]4CCCNC4)ncc3c2)c(F)c1F [Compound 1007, (S)—N-(2,3-Difluoro-4-(2-(piperidin-3-ylamino)quinazolin-6-yl)phenyl)-2,2-difluorobutane-1-sulfonamide] | 2.9
O=S(=O)(Cc1ccccc1)Nc1ccc(Cl)c(-c2ccc3nc(N[C@H]4CCCNC4)ncc3c2)c1F [Compound 1008, (S)—N-(4-Chloro-2-fluoro-3-(2-(piperidin-3-ylamino)quinazolin-6-yl)phenyl)-1-phenylmethanesulfonamide] | 30
Cc1cc(NS(=O)(=O)Cc2ccccc2)c(F)c(F)c1-c1ccc2nc(N[C@H]3CCCNC3)ncc2c1 [Compound 1009, (S)—N-(2,3-Difluoro-5-methyl-4-(2-(piperidin-3-ylamino)quinazolin-6-yl)phenyl)-1-phenylmethanesulfonamide] | 4.9
O=S(=O)(Cc1ccccc1)Nc1ccc(-c2ccc3nc(N[C@H]4CCCNC4)ncc3c2)cc1F [Compound 1010, (S)—N-(2-Fluoro-4-(2-(piperidin-3-ylamino)quinazolin-6-yl)phenyl)-1-phenylmethanesulfonamide] | 11
O=S(=O)(Cc1ccccc1)Nc1c(F)cc(-c2ccc3nc(N[C@H]4CCCNC4)ncc3c2)cc1F [Compound 1011, (S)—N-(2,6-Difluoro-4-(2-(piperidin-3-ylamino)quinazolin-6-yl)phenyl)-1-phenylmethanesulfonamide] | 0.53
O=S(=O)(Cc1ccccc1)Nc1ccc(-c2ccc3nc(N[C@H]4CCCNC4)ncc3c2F)c(F)c1F [Compound 1012, (S)—N-(2,3-Difluoro-4-(5-fluoro-2-(piperidin-3-ylamino)quinazolin-6-yl)phenyl)-1-phenylmethanesulfonamide] | 15
O=S(=O)(Cc1ccccc1)Nc1c(F)cc(-c2ccc3nc(N[C@@H]4CNC[C@@H](F)C4)ncc3c2)cc1F [Compound 1013, N-(2,6-Difluoro-4-(2-(((3S,5S)-5-fluoropiperidin-3-yl)amino)quinazolin-6-yl)phenyl)-1-phenylmethanesulfonamide] | 0.51
O=S(=O)(Cc1ccccc1)Nc1cc(F)c(-c2ccc3nc(N[C@H]4CCCNC4)ncc3c2)c(F)c1F [Compound 1014, (S)-1-Phenyl-N-(2,3,5-trifluoro-4-(2-(piperidin-3-ylamino)quinazolin-6-yl)phenyl)methanesulfonamide hydrochloride] | 2.1
O=S(=O)(Cc1ccccc1)Nc1ccc(-c2cc3cnc(N[C@H]4CCCNC4)nc3cc2F)c(F)c1F [Compound 1015, (S)—N-(2,3-Difluoro-4-(7-fluoro-2-(piperidin-3-ylamino)quinazolin-6-yl)phenyl)-1-phenylmethanesulfonamide] | 3.1
CCc1cc(-c2ccc(NS(=O)(=O)Cc3ccccc3)cc2F)cc2cnc(N[C@@H]3CNC[C@@H](F)C3)nc12 [Compound 1016, N-(4-(8-Ethyl-2-(((3S,5S)-5-fluoropiperidin-3-yl)amino)quinazolin-6-yl)-3-fluorophenyl)-1-phenylmethanesulfonamide Formate] | 0.46
CCc1cc(-c2ccc(NS(=O)(=O)Cc3ccccc3)c(F)c2)cc2cnc(N[C@@H]3CNC[C@@H](F)C3)nc12 [Compound 1017, N-(4-(8-Ethyl-2-(((3S,5S)-5-fluoropiperidin-3-yl)amino)quinazolin-6-yl)-2-fluorophenyl)-1-phenylmethanesulfonamide] | 0.18
CCc1cc(-c2ccc(NS(=O)(=O)CCC(F)(F)F)c(F)c2)cc2cnc(N[C@H]3CC[C@H](N(C)C)CC3)nc12 [Compound 1018, N-(4-(2-(((1,4-trans)-4-(Dimethylamino)cyclohexyl)amino)-8-ethylquinazolin-6-yl)-2-fluorophenyl)-3,3,3-trifluoropropane-1-sulfonamide] | 0.25
